Some test systems named below: HL-60; Hs-578T; MCF7; PC-3; NCI/ADR-RES; SK-MEL-2; MDA-MB-231; A498; IGROV-1; RPMI-8226; RXF 393; HOP-92; SNB-75; BT-549; SR; MDA-MB-435; SK-MEL-28; MDA-N; 786-0.
Assay in all cases: growth of human tumour cells (NCI), 48 h

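Following 48 hours of exposure in 96-well plates, responses at five concentrations were used to interpolate endpoints linearly. GI50 = concentration required for 50% inhibition of growth.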 The source made the active and inactive calls. No stated cut-off is given here; in the data, active = GI50 up to about 1.1 µM and inactive = higher. Where only a bound is given, the exact number is not on record here.

For the compound `NC(CCCCO)C(=O)O` (centres undefined), the GI50 with HL-60, in the experiment on Hs-578T, with MCF7, in the experiment with PC-3, in the experiment with NCI/ADR-RES and in the experiment on SK-MEL-2 was > 100 µM (inactive) in each case. Moreover, the GI50 in the experiment on MDA-MB-231, with A498, in the experiment on IGROV-1, with RPMI-8226, in the experiment with RXF 393 and in the experiment on HOP-92 was > 100 µM (inactive) throughout. Besides, the GI50 in the experiment on SNB-75, in the experiment with BT-549, with SR, in the experiment with MDA-MB-435 and with SK-MEL-28 was > 100 µM (inactive) each time.
Take `NC(=O)SCC(=O)Nc1ccc2ncccc2c1`: the GI50 with HL-60 was > 100 µM (inactive); in the experiment with Hs-578T it was 67.3 µM (inactive); in the experiment with MDA-N, 61.5 µM (inactive); in the experiment with MCF7, 46.8 µM (inactive); in the experiment with 786-0, 26.8 µM (inactive); in the experiment on PC-3, 64.9 µM (inactive). Also, the GI50 is > 100 µM (inactive) in the experiment on NCI/ADR-RES; 46.8 µM (inactive) in the experiment with SK-MEL-2; > 100 µM (inactive) with MDA-MB-231; > 100 µM (inactive) in the experiment on A498; > 100 µM (inactive) with IGROV-1; 23.6 µM (inactive) in the experiment on RPMI-8226. Moreover, the GI50 with HOP-92 is 35.2 µM (inactive); with BT-549, 74.5 µM (inactive); with SR, 49 µM (inactive); with MDA-MB-435, 48.3 µM (inactive); in the experiment with SK-MEL-28, > 100 µM (inactive).
For the compound `CC(=O)C1=C(C)NC(=C(C#N)C#N)C(C#N)=C1`, the GI50 in the experiment with HL-60, with Hs-578T, in the experiment on MDA-N, in the experiment with MCF7, with 786-0 and in the experiment on PC-3 was > 100 µM (inactive) each time. The GI50 in the experiment with NCI/ADR-RES, in the experiment on SK-MEL-2, in the experiment on MDA-MB-231, with A498, in the experiment with IGROV-1 and with RPMI-8226 was > 100 µM (inactive) each time. Also, the GI50 with RXF 393, in the experiment with HOP-92, in the experiment with SNB-75, with SR, in the experiment with MDA-MB-435 and in the experiment on SK-MEL-28 was > 100 µM (inactive) throughout.
Take `Nc1ncnc2c1cnn2Cc1ccc(Cl)cc1`: the GI50 was > 100 µM (inactive) with HL-60; > 100 µM (inactive) in the experiment on Hs-578T; > 100 µM (inactive) in the experiment with MDA-N; > 100 µM (inactive) in the experiment with MCF7; > 100 µM (inactive) with PC-3; 83 µM (inactive) in the experiment on NCI/ADR-RES. Further, the GI50 is > 100 µM (inactive) in the experiment with MDA-MB-231; 0.445 µM (active) in the experiment on A498; > 100 µM (inactive) with RXF 393; > 100 µM (inactive) in the experiment with HOP-92; 48.4 µM (inactive) with SNB-75; > 100 µM (inactive) in the experiment on MDA-MB-435.
With `O=C(C#Cc1ccccc1)C1=Cc2ccccc2OC1`, the GI50 with HL-60 is 2.19 µM (inactive); in the experiment on Hs-578T it was 8.26 µM (inactive); in the experiment with MCF7, 1.42 µM (inactive); in the experiment on 786-0 it was 2.4 µM (inactive); with PC-3, 4.34 µM (inactive); in the experiment with NCI/ADR-RES it was 2.79 µM (inactive). In addition, the GI50 with SK-MEL-2 was 3.94 µM (inactive); in the experiment on MDA-MB-231, 3.21 µM (inactive); in the experiment on A498, 19.2 µM (inactive); in the experiment with IGROV-1 it was 2.38 µM (inactive); with RPMI-8226 it was 2.71 µM (inactive); in the experiment with RXF 393 it was 3 µM (inactive). Moreover, the GI50 was 6.14 µM (inactive) with SNB-75; 2.16 µM (inactive) with BT-549; 7.23 µM (inactive) in the experiment on SR; 3.86 µM (inactive) with MDA-MB-435; 7.53 µM (inactive) in the experiment on SK-MEL-28.
Take `O=S(=O)(N=S(c1ccccc1)c1ccccc1)c1ccccc1`: the GI50 in the experiment with HL-60 is > 100 µM (inactive); in the experiment on MCF7, > 100 µM (inactive); in the experiment with 786-0, > 100 µM (inactive); with PC-3 it was > 100 µM (inactive); in the experiment with NCI/ADR-RES, > 100 µM (inactive); with A498 it was 78.9 µM (inactive). Moreover, the GI50 with RPMI-8226, in the experiment on RXF 393, in the experiment with HOP-92, with BT-549, with SR and with MDA-MB-435 was > 100 µM (inactive) throughout. Further, the GI50 in the experiment on SK-MEL-28 is > 100 µM (inactive).
As to `COCOc1cc(OC)c(Br)cc1C/C(=N/O)C(=O)OC`, the GI50 in the experiment on HL-60 was 52.7 µM (inactive); with Hs-578T it was 15.9 µM (inactive); in the experiment with MDA-N it was 28 µM (inactive); in the experiment on MCF7, 95.5 µM (inactive); in the experiment with 786-0 it was > 100 µM (inactive); in the experiment with PC-3 it was 42.9 µM (inactive). In addition, the GI50 with NCI/ADR-RES was 34 µM (inactive); in the experiment on SK-MEL-2, 88.5 µM (inactive); in the experiment with MDA-MB-231 it was 42.2 µM (inactive); in the experiment on IGROV-1, 56.4 µM (inactive); with RXF 393, 28.5 µM (inactive); in the experiment with SNB-75 it was 7.6 µM (inactive). Also, the GI50 is 70.1 µM (inactive) in the experiment on BT-549, 34.7 µM (inactive) in the experiment on SR, 29.6 µM (inactive) with MDA-MB-435 and > 100 µM (inactive) in the experiment on SK-MEL-28.
On to `O=C1Nc2ccccc2[C@]12C[C@H]2c1ccccn1`, for which the GI50 in the experiment on MDA-N, with MCF7, in the experiment with 786-0, in the experiment on PC-3, in the experiment with NCI/ADR-RES and in the experiment on SK-MEL-2 was > 100 µM (inactive) each time. Moreover, the GI50 in the experiment with MDA-MB-231, with A498, in the experiment on IGROV-1, in the experiment on RPMI-8226, in the experiment on RXF 393 and with HOP-92 was > 100 µM (inactive) each time. Moreover, the GI50 with BT-549, with MDA-MB-435 and in the experiment on SK-MEL-28 was > 100 µM (inactive) throughout.
`[O-][N+]1=C2CCC/C(=N/O)C2(O)C2CCCCC21N1CCOCC1` (centres undefined): the GI50 with Hs-578T, in the experiment with MDA-N, in the experiment on MCF7, in the experiment with 786-0, in the experiment with PC-3 and with NCI/ADR-RES was > 100 µM (inactive) each time. Further, the GI50 with SK-MEL-2 was > 100 µM (inactive); in the experiment on MDA-MB-231, > 100 µM (inactive); in the experiment on IGROV-1, > 100 µM (inactive); in the experiment with RXF 393, 8.02 µM (inactive); with SNB-75, > 100 µM (inactive); with BT-549 it was > 100 µM (inactive). For the same compound, the GI50 with SR, with MDA-MB-435 and in the experiment on SK-MEL-28 was > 100 µM (inactive) throughout.
Turning to `COc1ccc2nc(-c3ccc(N)cc3)sc2c1`, the GI50 was 47.5 µM (inactive) with HL-60; 34.6 µM (inactive) with Hs-578T; > 100 µM (inactive) in the experiment with MCF7; 43.9 µM (inactive) in the experiment on 786-0; 48 µM (inactive) in the experiment with PC-3; > 100 µM (inactive) in the experiment with NCI/ADR-RES. Moreover, the GI50 is > 100 µM (inactive) in the experiment on SK-MEL-2; 81.8 µM (inactive) in the experiment with MDA-MB-231; 53.1 µM (inactive) in the experiment with A498; 70.5 µM (inactive) in the experiment with IGROV-1; > 100 µM (inactive) with RXF 393; > 100 µM (inactive) in the experiment on HOP-92. Besides, the GI50 was 44.8 µM (inactive) in the experiment on SNB-75; > 100 µM (inactive) in the experiment on BT-549; 32.4 µM (inactive) in the experiment with SR; > 100 µM (inactive) in the experiment with MDA-MB-435; > 100 µM (inactive) in the experiment with SK-MEL-28.
Consider `O=C1CCC2=C(CCC2)N1CCc1ccc2c(c1)OCO2`, for which the GI50 in the experiment on HL-60 is 7.62 µM (inactive); in the experiment on Hs-578T, 49 µM (inactive); with MDA-N, > 100 µM (inactive); with MCF7, 60 µM (inactive); in the experiment with 786-0 it was > 100 µM (inactive); in the experiment with PC-3 it was 32.5 µM (inactive). In addition, the GI50 was 43 µM (inactive) in the experiment with NCI/ADR-RES; 29.9 µM (inactive) in the experiment with SK-MEL-2; > 100 µM (inactive) in the experiment with MDA-MB-231; 58.7 µM (inactive) with IGROV-1; < 0.01 µM (active) in the experiment on RPMI-8226; 1.21 µM (inactive) in the experiment with RXF 393. For the same compound, the GI50 in the experiment on SNB-75 was 29.2 µM (inactive); in the experiment with BT-549, 20.8 µM (inactive); in the experiment with SR, 30.9 µM (inactive); in the experiment on SK-MEL-28, > 100 µM (inactive).
On to `CCOC(=O)N1c2ccccc2C(C)=CC(C)C1C` (centres undefined), for which the GI50 was 27.2 µM (inactive) in the experiment on HL-60; 35.6 µM (inactive) with Hs-578T; 1.32 µM (inactive) in the experiment with MDA-N; 10.3 µM (inactive) in the experiment on MCF7; 20.6 µM (inactive) with 786-0; 55.8 µM (inactive) with PC-3. Besides, the GI50 in the experiment on NCI/ADR-RES is 25.8 µM (inactive); with SK-MEL-2, 32.7 µM (inactive); in the experiment with MDA-MB-231, 22.9 µM (inactive); in the experiment on A498 it was 27 µM (inactive); in the experiment with IGROV-1 it was 44 µM (inactive); in the experiment on RPMI-8226 it was 56.8 µM (inactive). Also, the GI50 is 11.3 µM (inactive) in the experiment on RXF 393; 19.1 µM (inactive) in the experiment with SNB-75; 5.09 µM (inactive) in the experiment with SR; 3.37 µM (inactive) with MDA-MB-435; 35.9 µM (inactive) in the experiment on SK-MEL-28.
For `CCCCNC(=S)Nc1nc(C(=O)NNC(=S)NC2CCCCC2)cs1`, the GI50 is > 100 µM (inactive) in the experiment with MDA-N; > 100 µM (inactive) in the experiment with MCF7; > 100 µM (inactive) with 786-0; > 100 µM (inactive) in the experiment with PC-3; 74.3 µM (inactive) in the experiment with NCI/ADR-RES; > 100 µM (inactive) in the experiment on SK-MEL-2. Further, the GI50 with MDA-MB-231 was > 100 µM (inactive); in the experiment on A498, > 100 µM (inactive); with IGROV-1, 66.5 µM (inactive); in the experiment with RPMI-8226, > 100 µM (inactive); with HOP-92 it was > 100 µM (inactive); in the experiment on BT-549, > 100 µM (inactive). The GI50 in the experiment with SR was 8.07 µM (inactive); in the experiment with MDA-MB-435 it was > 100 µM (inactive).

Values taken from ChEMBL document CHEMBL1201862, “PubChem BioAssay data set” (2004).
